Laboratory results reported in patent US20120136005A1, “E[…] THE TREATMENT OF ANXIETY” (MERZ PHARMA GmbH & CO. KGaA, priority 2009, published 2012).
Entries after “also recorded” stand apart in the source; their conditions may differ.

How the values were obtained:
[1] = target: T1, human serotonin 5-HT1b receptor (Homo sapiens, UniProt P28222); test: GTPγS assay, recombinant CHO-K1 membranes; assay type: biochemical; settings: human recombinant cell lines; FIG. 1
T1 construct: expressed in transfected cells; host or cells: CHO-K1 (membranes)
Protocol: (§1) Eltoprazine was tested for activity on the human serotonin 5-HT1a and 5-HT1b receptors using a GTPγS assay. Recombinant membranes obtained from CHO-K1 cells expressing either the 5-HT1a or 5-HT1b receptors were mixed with GDP (volume:volume) and incubated for at least 15 min on ice. In parallel, GTPγ[35S] was mixed with the beads (volume:volume) just before starting the reaction. The following reagents were successively added in the wells of an Optiplate (Perkin Elmer): 50 μl of test compound, 20 μl of the membranes:GDP mix, 10 μl of assay buffer (for agonist testing) and 20 μl of the GTPγ[35S]:beads mix. The plates were covered with a top seal, shaken on an orbital shaker for 2 min, and then incubated for 1 h at room temperature. Then the plates were centrifuged for 10 min at 2000 rpm, incubated at room temperature 1 h and counted for 1 min/well with a PerkinElmer TopCount reader.

[2] = target: T2, human serotonin 5-HT1a receptor (Homo sapiens, UniProt P08908); test: GTPγS assay, recombinant CHO-K1 membranes; assay type: biochemical; settings: human recombinant cell lines; FIG. 1
T2 construct: expressed in transfected cells; host or cells: CHO-K1 (membranes)
T2 sequence (P08908 1-422): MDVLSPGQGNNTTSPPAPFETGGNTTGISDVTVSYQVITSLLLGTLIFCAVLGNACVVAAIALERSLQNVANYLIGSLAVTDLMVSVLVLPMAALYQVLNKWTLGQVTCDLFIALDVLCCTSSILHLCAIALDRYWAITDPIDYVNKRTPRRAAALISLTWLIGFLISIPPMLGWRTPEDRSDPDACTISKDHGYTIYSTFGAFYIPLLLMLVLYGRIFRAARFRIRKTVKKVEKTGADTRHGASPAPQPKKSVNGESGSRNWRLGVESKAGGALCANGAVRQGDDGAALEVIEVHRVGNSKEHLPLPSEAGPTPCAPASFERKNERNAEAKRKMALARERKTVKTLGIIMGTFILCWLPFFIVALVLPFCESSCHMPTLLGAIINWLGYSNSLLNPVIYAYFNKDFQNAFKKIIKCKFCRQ
Protocol: as §1

[3] = Rodgers et al., 1992; Rocha et al., 1994; cited from earlier work
Sprague-Dawley rats [4] = test: Contextual fear conditioning; assay type: in vivo; settings: acute s.c. 0.078 to 1.25 mg/kg, 60 min before the test; FIG. 4
Protocol: (§2) For contextual fear conditioning, open field, fear potentiated startle and elevate plus maze, experimentally naive adult male Sprague-Dawley rats (250-300 g; Janvier, France) were housed in groups of four per cage. Colony room temperature and humidity were maintained respectively at 20±1° C. and 60±3%. Food and water were available ad libitum and the animals were kept under an alternating 12 h/12 h day-night cycle (lights on at 07.00) for at least 6 days before the experiments were started. All experiments were conducted during the light period of the day-night cycle. For the Vogel test, male experimentally naive Wistar rats (180-220 g, State Breeding Farm “Rappolovo”, St. Petersburg, Russia; N=109) were used. Each animal was used only once.
Eltoprazine hydrochloride was dissolved in sterile water. […]
For training and testing, subjects were placed in test cages (30 cm wide, 29 cm high and 25 cm deep) equipped with a grid floor consisting of 18 stainless steel bars (3 mm ID). […] 24 h after conditioning, subjects are placed back in the test cages and freezing is recorded for a period of 5 min. […]
Percent of freezing during the 5 min expression test on day 2 is taken for statistical analysis. Data are analysed by one-way ANOVA on ranks followed by rank sum tests.

Sprague-Dawley rats [5] = test: Fear potentiated startle; assay type: in vivo; settings: acute treatment
Protocol: as §2
Eltoprazine hydrochloride was dissolved in sterile water. Administration of eltoprazine or vehicle (sterile water) was done s.c. (0.078 to 1.25 mg/kg) once, 60 minutes (30 min in the Vogel test) prior to start of the behavioural assay.

patients = settings: clinical trials, de Koning et al. 1994; cited from earlier work
Sprague-Dawley rats [6] = test: Elevated plus maze; assay type: in vivo; settings: doses of 0.3125 and 1.25 mg/kg s.c.; FIG. 6
Protocol: For contextual fear conditioning, open field, fear potentiated startle and elevate plus maze, experimentally naive adult male Sprague-Dawley rats (250-300 g; Janvier, France) were housed in groups of four per cage. Colony room temperature and humidity were maintained respectively at 20±1° C. and 60±3%. Food and water were available ad libitum and the animals were kept under an alternating 12 h/12 h day-night cycle (lights on at 07.00) for at least 6 days before the experiments were started. All experiments were conducted during the light period of the day-night cycle. […]
The elevated plus maze, made from black polypropylene, consists of two open arms (50.8 cm×10.2 cm surrounded by 1.3 cm walls) and two enclosed arms (50.8×10.2 cm and 40.6 cm high walls), which extended form central platform (10.2×10.2 cm). […] Breaks of photo beam are recorded and analysed automatically using an IBM-PC running MED-PC software version IV (Med Associates). […] During the following 5 min period the number of entries into closed and open arms as well as time spent in each type of arm is recorded. An arm entry is recorded when all four paws entering the arm. The obtained results are expressed as mean±S.E.M. percent entries or percent time spent in open arms. […]
Percent of time spent in open arm are taken for statistical analysis. Data are analysed by one-way ANOVA followed by Dunnett's test.

T1 sequence (P28222 whole entry): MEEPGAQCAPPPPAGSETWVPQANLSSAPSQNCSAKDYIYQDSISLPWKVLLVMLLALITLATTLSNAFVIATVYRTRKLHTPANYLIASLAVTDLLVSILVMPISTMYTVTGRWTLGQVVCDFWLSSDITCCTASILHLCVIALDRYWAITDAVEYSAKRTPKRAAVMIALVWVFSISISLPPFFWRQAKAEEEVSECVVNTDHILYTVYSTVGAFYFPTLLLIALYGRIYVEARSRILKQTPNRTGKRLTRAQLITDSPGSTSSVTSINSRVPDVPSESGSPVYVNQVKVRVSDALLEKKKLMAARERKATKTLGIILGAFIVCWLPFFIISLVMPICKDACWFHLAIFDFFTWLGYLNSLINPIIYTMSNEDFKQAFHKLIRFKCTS

## c1cc2c(c(N3CCNCC3)c1)OCCO2 [eltoprazine, 1-(2,3-dihydro-1,4-benzodioxin-5-yl)piperazine]
[1]
  functional activity at 5-HT1b receptor: partial agonistic action
[2]
  functional activity at 5-HT1a receptor: partial agonistic action
[3]
  effect in the elevated plus maze, previous data: anxiogenic-like effects
Sprague-Dawley rats [4]
  time spent freezing during re-exposure to the conditioning context: dose-dependently induced anxiolytic-like effects; also recorded: very strong anxiolytic effect
Sprague-Dawley rats [5]
  effect in fear potentiated startle, first experiment: anxiolytic-like effect
Sprague-Dawley rats [5]; same doses
  effect in fear potentiated startle, repetition study: strong trend
patients
  clinical safety: clinically safe
Sprague-Dawley rats [6]
  time spent in the open arms of the elevated plus maze: reduced the time spent in the open arms; also recorded: anxiogenic-like effect
